Assay results taken from patent US20240269139A1, “COMPOUNDS FOR TARGETED PROTEIN DEGRADATION OF KINASES” (DANA-FARBER CANCER INSTITUTE, INC., priority 2020, published 2024).
Read-outs that look alike come from different tables or passages of the source.

Assays:
[1] = target: extended human kinome (kinase-like proteins) (Homo sapiens, UniProt P27144); test: Whole cell quantitative proteomics: extended kinome hits; conditions: experiment wp137
Method: (§3) Whole cell multiplexed quantitative proteomics was employed to measure changes in abundance of the proteome in response to treatment with each of the kinase degrader molecules relative to DMSO (Table 1, Appendix I).
(§4) Cells were treated with DMSO (biological triplicate) or degrader at indicated dose and time and cells were harvested by centrifugation. […] Precipitated protein was resuspended in 4 M Urea, 50 mM HEPES pH 7.4, followed by dilution to 1 M urea with the addition of 200 mM EPPS, pH 8. Proteins were first digested with LysC (1:50: enzyme:protein) for 12 hours at room temperature. The LysC digestion was diluted to 0.5 M Urea with 200 mM EPPS pH 8 followed by digestion with trypsin (1:50; enzyme:protein) for 6 hours at 37° C. Tandem mass tag (TMT) reagents (Thermo Fisher Scientific) were dissolved in anhydrous acetonitrile (ACN) according to manufacturer's instructions. […] The 10, 11, or 16-plex labeling reactions were performed for 1.5 hours at room temperature and the reaction quenched by the addition of hydroxylamine to a final concentration of 0.3% for 15 minutes at room temperature. The sample channels were combined at a 1:1 ratio, desalted using C18 solid phase extraction cartridges (Waters®) and analyzed by LC-MS for channel ratio comparison. Samples were then combined using the adjusted volumes determined in the channel ratio analysis and dried down in a speed vacuum. The combined sample was then resuspended in 1% formic acid, and acidified (pH 2-3) before being subjected to desalting with C18 SPE (Sep-Pak®, Waters®). Samples were then offline fractionated into 96 fractions by high pH reverse-phase HPLC (Agilent® LC1260) through an aeris peptide xb-c18 column (Phenomenex®) with mobile phase A containing 5% acetonitrile and 10 mM NH4HCO3 in LC-MS grade H2O, and mobile phase B containing 90% acetonitrile and 10 mM NH4HCO3 in LC-MS grade H2O (both pH 8.0). The 96 resulting fractions were then pooled in a non-continuous manner into 24 fractions and desalted using C18 solid phase extraction plates (SOLA®, Thermo Fisher Scientific) followed by subsequent mass spectrometry analysis.
(§5) Data were collected using an Orbitrap Fusion™ Lumos™ mass spectrometer (Thermo Fisher Scientific, San Jose, CA, USA) coupled with a Proxeon EASY-nLC™ 1200 LC pump (Thermo Fisher Scientific) or an Orbitrap Eclipse™ Tribrid™ mass spectrometer (Thermo Fisher Scientific, San Jose, CA, USA) coupled with an UltiMate™ 3000 RSLCnano System. Peptides were separated on an EasySpray™ ES803a/ES803a.rev2 75 μm inner diameter microcapillary column (ThermoFisher Scientific).
(§6) Data dependent MS2 spectra were acquired in the ion trap with a normalized collision energy (NCE) set at 35%, AGC target set to 1.8×10^4 and a maximum injection time of 120 ms. MS3 scans were acquired in the Orbitrap with HCD collision energy set to 55%. AGC target set to 2×10^5, maximum injection time of 150 ms, resolution at 50,000 and with a maximum synchronous precursor selection (SPS) precursors set to 10.
(§7) Proteome Discoverer™ 2.1, 2.2 or 2.4 (Thermo Fisher Scientific) was used for .RAW file processing and controlling peptide and protein level false discovery rates, assembling proteins from peptides, and protein quantification from peptides.

[2] = target: T1, extended human kinome (kinase-like proteins) (Homo sapiens, UniProt Q7L8L6); test: as above; conditions: Accession Q7L8L6; experiment wp137
T1 sequence (Q7L8L6 28-764): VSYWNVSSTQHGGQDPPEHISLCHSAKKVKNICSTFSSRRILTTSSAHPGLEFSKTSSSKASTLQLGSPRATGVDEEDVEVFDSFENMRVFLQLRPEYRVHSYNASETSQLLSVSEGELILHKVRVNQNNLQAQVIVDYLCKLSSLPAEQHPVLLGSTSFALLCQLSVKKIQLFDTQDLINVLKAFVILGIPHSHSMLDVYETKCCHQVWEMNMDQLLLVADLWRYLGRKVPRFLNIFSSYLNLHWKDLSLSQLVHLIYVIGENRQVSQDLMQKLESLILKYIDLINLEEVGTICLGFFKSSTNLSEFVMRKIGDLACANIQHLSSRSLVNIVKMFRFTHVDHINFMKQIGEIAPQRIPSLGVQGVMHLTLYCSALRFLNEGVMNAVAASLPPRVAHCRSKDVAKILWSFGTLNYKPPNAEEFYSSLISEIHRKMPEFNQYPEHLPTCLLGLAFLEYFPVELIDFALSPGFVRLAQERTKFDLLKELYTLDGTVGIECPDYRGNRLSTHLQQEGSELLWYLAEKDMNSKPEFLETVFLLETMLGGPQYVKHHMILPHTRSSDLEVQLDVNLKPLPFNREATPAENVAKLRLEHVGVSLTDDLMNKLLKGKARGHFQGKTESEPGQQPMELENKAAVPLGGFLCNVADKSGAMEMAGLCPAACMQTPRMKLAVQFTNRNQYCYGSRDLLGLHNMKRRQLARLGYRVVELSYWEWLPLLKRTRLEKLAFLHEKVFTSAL
Method: as §3, §4, §5, §6, §7

[3] = target: T2, extended human kinome (kinase-like proteins) (Homo sapiens, UniProt Q9UHH9); test: as above; conditions: Accession Q9UHH9
T2 sequence (Q9UHH9 1-426): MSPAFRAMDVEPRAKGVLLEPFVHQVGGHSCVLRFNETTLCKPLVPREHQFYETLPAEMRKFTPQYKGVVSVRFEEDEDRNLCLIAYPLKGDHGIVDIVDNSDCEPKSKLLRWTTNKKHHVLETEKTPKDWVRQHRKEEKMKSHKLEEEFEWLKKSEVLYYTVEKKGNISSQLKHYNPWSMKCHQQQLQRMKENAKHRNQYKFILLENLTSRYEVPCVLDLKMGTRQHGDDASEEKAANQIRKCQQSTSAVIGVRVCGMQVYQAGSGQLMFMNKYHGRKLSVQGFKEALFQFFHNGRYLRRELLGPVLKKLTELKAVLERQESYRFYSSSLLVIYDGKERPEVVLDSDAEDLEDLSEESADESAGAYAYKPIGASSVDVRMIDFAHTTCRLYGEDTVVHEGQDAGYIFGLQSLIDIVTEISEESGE
Method: as §3, §4, §5, §6, §7

[4] = target: protein kinases (human kinome) (Homo sapiens, UniProt O14874); format: cell-based; conditions: BCKDK (O14874), experiment wp137
Excerpt: (§1) Although development of targeted protein degraders requires a POI binder, among already-liganded proteins such as kinases, it was hypothesized that different targets would have a different propensity for current approaches to degrader-mediated destruction, which was termed ‘degradability’. […] It was rationalized that the probability of identifying the same kinase as a false positive in multiple treatments is low, therefore this analysis served to also assess the robustness of our data and subsequent interpretations. […] Overall, 62 protein kinases were degraded in more than 10 independent treatments, and remarkably, 9 of these (CDK4, AURKA, FER, WEE1, BLK. LIMK2, CDK6, GAK, LIMK1) were each degraded in at least 40 of the 154 independent treatments, emphasizing their predisposition to induced degradation (FIG. 1G; Appendix I).
(§2) Next, the frequency of degradation assessment was corrected for over-representation of molecules in the full dataset by omitting replicate profiling of compounds under different experimental conditions, to remove any bias. […] Unsurprisingly, the top degradable kinases mirror those from the previous analysis (CDK4, AURKA, FER, WEE1, BLK), confirming that in sufficiently large datasets, even with over-representation of certain molecules, frequency of degradation is a good measure of general tractability.

[5] = target: protein kinases (human kinome) (Homo sapiens, UniProt Q9Y243); format: cell-based; conditions: AKT3 (Q9Y243-1)
Excerpt: as §1, §2

[6] = target: protein kinases (human kinome) (Homo sapiens, UniProt P31749); format: cell-based; conditions: for logFC: AKT1 (P31749)
Excerpt: as §1, §2

[7] = target: protein kinases (human kinome) (Homo sapiens, UniProt Q15118); format: cell-based; conditions: PDK1 Q15118; experiment wp137
Excerpt: as §1, §2

[8] = target: protein kinases (human kinome) (Homo sapiens, UniProt P31751); format: cell-based; conditions: AKT2 (P31751)
Excerpt: as §1, §2

[9] = target: T3, protein kinases (human kinome) (Homo sapiens, UniProt Q9UEE5); format: cell-based; conditions: STK17A Q9UEE5; experiment wp135; 8 hr
T3 sequence (Q9UEE5 1-414): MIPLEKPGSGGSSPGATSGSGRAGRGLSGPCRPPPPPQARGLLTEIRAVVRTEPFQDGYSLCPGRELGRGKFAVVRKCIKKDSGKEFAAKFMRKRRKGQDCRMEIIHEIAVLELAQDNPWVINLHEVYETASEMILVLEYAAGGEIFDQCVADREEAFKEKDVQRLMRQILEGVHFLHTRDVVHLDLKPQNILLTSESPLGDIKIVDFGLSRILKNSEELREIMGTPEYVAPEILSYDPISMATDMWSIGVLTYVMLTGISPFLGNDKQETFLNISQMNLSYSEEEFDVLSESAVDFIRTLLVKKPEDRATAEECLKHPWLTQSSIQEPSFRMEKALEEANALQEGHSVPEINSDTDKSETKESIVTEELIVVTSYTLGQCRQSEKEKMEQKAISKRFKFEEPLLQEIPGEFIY
Excerpt: as §1, §2

[10] = target: protein kinases (human kinome) (Homo sapiens, UniProt P11802); format: cell-based; conditions: experiment wp135, 8 hr
Excerpt: as §1, §2

[11] = experiment wp104, direction down
[12] = experiment wp137, direction down
[13] = experiment wp135, 8 hr, direction down

Chain of protein kinases (human kinome) (Homo sapiens, UniProt Q9Y243) (Q9Y243 whole entry): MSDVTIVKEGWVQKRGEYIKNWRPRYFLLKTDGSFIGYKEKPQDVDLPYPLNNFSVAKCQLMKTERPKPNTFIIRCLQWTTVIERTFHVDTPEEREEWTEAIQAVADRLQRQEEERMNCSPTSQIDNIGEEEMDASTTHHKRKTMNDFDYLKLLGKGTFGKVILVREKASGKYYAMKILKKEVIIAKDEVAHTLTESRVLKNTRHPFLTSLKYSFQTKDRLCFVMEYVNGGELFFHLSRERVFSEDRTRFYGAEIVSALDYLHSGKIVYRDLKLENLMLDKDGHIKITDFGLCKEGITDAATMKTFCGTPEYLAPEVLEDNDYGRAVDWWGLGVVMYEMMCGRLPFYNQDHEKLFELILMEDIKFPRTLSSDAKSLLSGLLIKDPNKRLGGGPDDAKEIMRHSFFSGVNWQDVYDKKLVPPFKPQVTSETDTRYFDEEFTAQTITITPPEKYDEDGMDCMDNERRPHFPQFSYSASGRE
Chain of protein kinases (human kinome) (Homo sapiens, UniProt P31749) (P31749 whole entry): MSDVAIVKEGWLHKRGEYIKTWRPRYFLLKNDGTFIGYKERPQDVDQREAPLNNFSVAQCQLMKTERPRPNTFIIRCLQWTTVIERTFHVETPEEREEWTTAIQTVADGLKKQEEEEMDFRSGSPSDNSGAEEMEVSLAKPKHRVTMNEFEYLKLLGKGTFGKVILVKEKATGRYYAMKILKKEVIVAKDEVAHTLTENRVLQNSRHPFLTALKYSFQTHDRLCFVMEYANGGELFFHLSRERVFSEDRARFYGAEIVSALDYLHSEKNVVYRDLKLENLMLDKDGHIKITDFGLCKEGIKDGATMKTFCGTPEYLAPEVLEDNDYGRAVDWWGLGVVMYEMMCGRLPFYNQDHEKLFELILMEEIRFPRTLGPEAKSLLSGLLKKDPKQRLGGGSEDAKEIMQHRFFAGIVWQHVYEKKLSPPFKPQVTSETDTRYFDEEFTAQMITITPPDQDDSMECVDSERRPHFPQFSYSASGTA
Chain of protein kinases (human kinome) (Homo sapiens, UniProt P31751) (P31751 whole entry): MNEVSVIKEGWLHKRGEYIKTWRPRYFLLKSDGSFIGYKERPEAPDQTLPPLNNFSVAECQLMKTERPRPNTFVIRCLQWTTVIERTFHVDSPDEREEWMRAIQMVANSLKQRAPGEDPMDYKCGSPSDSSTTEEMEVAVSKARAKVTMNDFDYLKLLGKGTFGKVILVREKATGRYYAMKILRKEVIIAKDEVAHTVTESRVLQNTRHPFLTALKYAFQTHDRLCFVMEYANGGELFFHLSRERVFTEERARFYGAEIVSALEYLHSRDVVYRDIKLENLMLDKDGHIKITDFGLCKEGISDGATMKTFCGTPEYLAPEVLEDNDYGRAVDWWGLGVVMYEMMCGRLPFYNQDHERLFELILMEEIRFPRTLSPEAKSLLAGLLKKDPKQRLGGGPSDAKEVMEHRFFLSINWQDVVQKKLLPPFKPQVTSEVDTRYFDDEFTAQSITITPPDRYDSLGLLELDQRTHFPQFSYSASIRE
Chain of protein kinases (human kinome) (Homo sapiens, UniProt P11802) (P11802 whole entry): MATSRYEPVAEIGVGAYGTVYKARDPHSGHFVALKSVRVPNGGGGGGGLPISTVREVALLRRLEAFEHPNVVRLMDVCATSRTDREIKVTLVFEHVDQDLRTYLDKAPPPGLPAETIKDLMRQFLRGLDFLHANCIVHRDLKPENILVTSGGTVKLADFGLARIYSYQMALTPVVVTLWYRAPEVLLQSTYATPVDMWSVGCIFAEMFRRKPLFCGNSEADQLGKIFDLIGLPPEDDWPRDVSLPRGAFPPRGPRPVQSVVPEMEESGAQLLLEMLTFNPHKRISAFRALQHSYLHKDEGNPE
Chain of protein kinases (human kinome) (Homo sapiens, UniProt Q15118) (Q15118 29-436): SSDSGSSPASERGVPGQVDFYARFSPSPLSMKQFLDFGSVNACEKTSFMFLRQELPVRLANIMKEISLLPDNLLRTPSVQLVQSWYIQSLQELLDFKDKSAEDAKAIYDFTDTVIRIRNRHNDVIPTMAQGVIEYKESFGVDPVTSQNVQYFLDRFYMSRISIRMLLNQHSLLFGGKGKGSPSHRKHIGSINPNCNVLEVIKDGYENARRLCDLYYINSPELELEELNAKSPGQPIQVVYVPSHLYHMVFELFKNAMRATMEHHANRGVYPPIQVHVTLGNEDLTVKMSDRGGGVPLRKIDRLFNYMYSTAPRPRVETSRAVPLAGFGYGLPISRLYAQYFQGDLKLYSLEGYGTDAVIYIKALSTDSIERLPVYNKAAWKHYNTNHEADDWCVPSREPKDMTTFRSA
Chain of extended human kinome (kinase-like proteins) (Homo sapiens, UniProt P27144) (P27144 whole entry): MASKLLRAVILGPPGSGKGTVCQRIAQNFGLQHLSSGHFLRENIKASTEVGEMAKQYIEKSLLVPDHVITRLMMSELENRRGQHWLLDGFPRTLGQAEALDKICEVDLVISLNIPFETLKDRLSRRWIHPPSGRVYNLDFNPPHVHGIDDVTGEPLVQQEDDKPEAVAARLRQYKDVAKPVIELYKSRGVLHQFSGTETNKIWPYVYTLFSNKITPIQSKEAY

C[C@@H]1C[C@@H](O)c2ncnc(N3CCN(C(=O)[C@H](CNCCCCCCCCNC(=O)COc4cccc5c4C(=O)N(C4CCC(=O)NC4=O)C5=O)c4ccc(Cl)cc4)CC3)c21 (stereo partly shown) [INY.02.164]
logFC AK4 (P27144) [1]: −0.5601
logFC FASTKD5 [2]: −0.3422
logFC IP6K2 ([3]; experiment wp137): −0.5449
logFC [4]: −0.36
logFC ([4]; direction down): −0.36
logFC ([5]; experiment wp104): −1.478
logFC [5, 11]: −1.478
logFC ([5]; experiment wp137): −3.147
logFC [5, 12]: −3.147
logFC ([6]; experiment wp104): −0.7926
logFC ([6]; experiment wp137): −3.206
logFC of AKT1 (P31749) ([6]; Experiment wp104): −0.7926
logFC of AKT1 (P31749) ([6]; experiment wp137): −3.206
logFC [7]: −0.4419
logFC PDK1 [7]: −0.4419
logFC ([8]; experiment wp104): −1.078
logFC [8, 11]: −1.078
logFC ([8]; experiment wp137): −3.156
logFC [8, 12]: −3.156

C[C@@H]1C[C@@H](O)c2ncnc(N3CCN(C(=O)[C@H](CNCCCCCCCCCCc4cccc5c4C(=O)N(C4CCC(=O)NC4=O)C5=O)c4ccc(Cl)cc4)CC3)c21 (stereo partly shown) [INY.03.041_01]
logFC IP6K2 ([3]; experiment wp135, 8 hr): −0.6456
logFC ([5]; experiment wp135, 8 hr): −2.215
logFC [5, 13]: −2.215
logFC [9]: −0.497
logFC ([6]; experiment wp135, 8 hr): −2.273
logFC of AKT1 (P31749) ([6]; experiment wp135, 8 hr): −2.273
logFC ([8]; experiment wp135, 8 hr): −2.274
logFC [8, 13]: −2.274
logFC CDK4 (P11802) [10]: −0.3281
